The target in assay [1] is EGFR (Homo sapiens, UniProt P00533). Briefly: In vitro inhibition of EGFR, Flash Plate or glass-fiber filter technology (C2). On the set-up: 0.5 μg EGFR-kinase domain/well. Conditions: EGFR-kinase domain, 5.0 μM unlabeled ATP, read-out: Kinase activity.(C2): pIC50 (converted). Type of assay: biochemical. The procedure:
The in vitro inhibition of EGFR was assessed using either the Flash Plate technology or the glass-fiber filter technology as described by Davies, S. P. et al., Biochem J. (2000), 351; p. 95-105. The Flash Plate technology is generally described by B. A. Brown et al. in High Throughput Screening (1997), p. 317-328. Editor(s): Devlin, John P. Publisher: Dekker, New York, N.Y.
In the Flash Plate EGFR kinase reaction assay, a kinase substrate consisting of biotinylated poly(L-glutamic acid-L-tyrosine) (poly(GT)biotin), is incubated with the aforementioned protein in the presence of (^33P) radiolabeled ATP. (^33P) phosphorylation of the substrate is subsequently measured as light energy emitted using a streptavidin-coated Flash Plate (PerkinElmer Life Sciences) by trapping and quantifying the binding of the biotin tagged and radiolabeled substrate.
The EGFR kinase reaction is performed at 30° C. for 60 minutes in a 96-well microtiter FlashPlate (PerkinElmer Life Sciences). For each of the tested compounds a full dose response 1·10^−6M to 1·10^−10M has been performed. IRESSA° and Tarceva™ (erlotinib) were used as reference compounds. The 100 μl reaction volume contains 54.5 mM TrisHCl pH 8.0, 10 mM MgCl2, 100 μM Na3VO4, 5.0 μM unlabeled ATP, 1 mM DTT, 0.009% BSA, 0.8 μCi AT^33P, 0.35 μg/well poly(GT)biotin and 0.5 μg EGFR-kinase domain/well.
The reaction is stopped by aspirating the reaction mixture and washing the plate 3× with 200 μl wash/stop buffer (PBS+100 mM EDTA). After the final wash step 200 μl of wash/stop buffer was added to each well and the amount of phosphorylated (^33P) Poly(GT)biotin determined by counting (30 sec/well) in a microtiterplate scintillation counter.
In the glass-fiber filter technology EGFR kinase reaction assay, a kinase substrate consisting of poly(L-glutamic acid-L-tyrosine) (poly(GT)), is incubated with the aforementioned protein in the presence of (^33P) radiolabeled ATP. (^33P) Phosporylation of the substrate is subsequently measured as radioactivity bound on a glassfiber-filter.
The EGFR kinase reaction is performed at 25° C. for 10 minutes in a 96-well microtiterplate. For each of the tested compounds a full dose response 1·10^−6M to 1·10^−10M has been performed. IRESSA° and Tarceva™ (erlotinib) were used as reference compounds. The 25 μl reaction volume contains 60 mM TrisHCl pH 7.5, 3 mM MgCl2, 3 mM Mn Cl2, 3 μM Na3VO4, 50 μg/ml PEG20000, 5.0 μM unlabeled ATP, 1 mM DTT, 0.1 μCi AT^33P, 62.5 ng/well poly(GT) and 0.5 μg EGFR-kinase domain/well.
The reaction is stopped by adding 5 μl of a 3% phosphoric acid solution. 10 μl of the reaction mixture is then spotted onto a Filtermat A filter (Wallac) and washed 3 times for 5 min. in 75 mM phosphoric acid and 1 time for 5 min. in methanol prior to drying and quantification on the Typhoon (Amersham) using a LE phosphorage storage screen.

Assay [2] concerns SKOV3 cells. As to the kind of experiment: Serum starved proliferation assay on the ovarian carcinoma SKOV3 cells (C3). Format: cell-based. The note with it: Homo sapiens, SK-OV-3, 72 h, EGF stimulated (100 ng/ml, 72 hours, serum free) or 72 hours with compounds; MTT cell viability assay; read-out: SKOV3 cell (C3): pIC50 (converted). The procedure:
The ovarian carcinoma cell line (SKOV3) was used in an epidermal growth factor stimulated cell proliferation assay, to assess the inhibitory effect of the compounds on EGF in whole cells.
In a first step the SKOV3 cells were incubated for 24 hours in the presence of 10% FCS serum. In the second step the cells were incubated with the compounds to be tested in a serum free condition (37° C. and 5% (v/v) CO2) and subsequently stimulated for 72 hours with EGF at a final concentration of 100 ng/ml. The effect of the compounds on the EGF stimulation was finally assessed in a standard MTT cell viability assay.
Alternatively, the SKOV3 cells were incubated for 24 hours in the presence of 10% FCS serum. In the second step the cells were incubated for 72 hours with the compounds to be tested and the effect of the compounds on cell proliferation was finally assessed in a standard MTT cell viability assay.
A general note: Tetrazolium assays rely on reduction of a dye to a coloured formazan, in cell work by metabolically active cells.

Chain of EGFR (P00533 712-979 limits assumed): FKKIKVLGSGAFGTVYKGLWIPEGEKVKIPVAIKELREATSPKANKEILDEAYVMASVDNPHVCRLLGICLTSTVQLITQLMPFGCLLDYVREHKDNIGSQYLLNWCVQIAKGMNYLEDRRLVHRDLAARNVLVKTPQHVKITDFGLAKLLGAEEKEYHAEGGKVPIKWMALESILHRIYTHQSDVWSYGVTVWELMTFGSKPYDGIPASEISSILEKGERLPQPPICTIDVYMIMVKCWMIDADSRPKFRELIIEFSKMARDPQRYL

On to `COCCCNCC(=O)N1CCOc2cc3c(ncnc3cc2OC)Nc2cc(Cl)ccc2CCCNC(=O)C1` [Compound 49, 4,6-ethanediylidenepyrimido[4,5-b][6,1,9,12]benzoxatriazacycloheptadecin-12(13H)-one, 19-chloro-8,9,10,11,14,15,16,21-octahydro-22-methoxy-10-[[(3-methoxypropyl)amino]acetyl]-], for which the IC50 is 398 nM in assay [1] and 794 nM in assay [2].
In the same order, the values of `COc1cc2ncnc3c2cc1OCCN(C(=O)CN1CCOCC1)CC(=O)NCCCc1ccc(Cl)cc1N3` [Compound 50, 4,6-ethanediylidenepyrimido[4,5-b][6,1,9,12]benzoxatriazacycloheptadecin-12(13H)-one, 19-chloro-8,9,10,11,14,15,16,21-octahydro-22-methoxy-10-(4-morpholinylacetyl)-] are 79.4 nM and 158 nM.
As for `COc1cc2ncnc3c2cc1OCCN(C)CC(=O)NCCCc1ccc(Cl)cc1N3` [Compound 52, 4,6-ethanediylidenepyrimido[4,5-b][6,1,9,12]benzoxatriazacycloheptadecin-12(13H)-one, 19-chloro-8,9,10,11,14,15,16,21-octahydro-22-methoxy-10-methyl-], the IC50 is 79.4 nM in assay [1] and 100 nM in assay [2].
As to `CCN1CCOc2cc3c(ncnc3cc2OC)Nc2cc(Cl)ccc2CCCNC(=O)C1` [Compound 53, 4,6-ethanediylidenepyrimido[4,5-b][6,1,9,12]benzoxatriazacycloheptadecin-12(13H)-one, 19-chloro-10-ethyl-8,9,10,11,14,15,16,21-octahydro-22-methoxy-], the IC50 in assay [1] is 200 nM; in assay [2] it was 501 nM.
For the compound `COc1cc2ncnc3c2cc1OCC1CCCN1CC(=O)NCCCc1ccc(Cl)cc1N3` (stereo not shown) [Compound 54, 1,22-ethanediylidene-5H,17H-pyrimido[4,5-b]pyrrolo[2,1-h][6,1,9,12]benzoxatriazacycloheptadecin-14(15H)-one, 7-chloro-10,11,12,13,18,19,19a,20-octahydro-24-methoxy-], the IC50 in assay [1] is 126 nM; in assay [2] it was 1260 nM.
In the case of `COc1cc2ncnc3c2cc1OCCCNCC(=O)NCCCc1ccc(Cl)cc1N3` [Compound 55, 4,6-ethanediylidene-8H-pyrimido[4,5-b][6,1,10,13]benzoxatriazacyclooctadecin-13(14H)-one, 20-chloro-9,10,11,12,15,16,17,22-octahydro-23-methoxy-], the IC50 is 501 nM in assay [1] and 200 nM in assay [2].
The matching figures for `COc1cc2ncnc3c2cc1OCC1CCCN(CC(=O)NCCCc2ccc(Cl)cc2N3)C1` (stereo not shown) [Compound 56, 14H-4,6-ethanediylidene-9,13-methano-8H-pyrimido[4,5-b][6,1,12,15]benzoxatriazacycloeicosin-15(16H)-one, 22-chloro-9,10,11,12,17,18,19,24-octahydro-26-methoxy-]: 1580 nM and 10000 nM.
Take `COc1cc2ncnc3c2cc1OCC1CCN(CC1)CC(=O)NCCCc1ccc(Cl)cc1N3` [Compound 57, 13H-4,6-ethanediylidene-9,12-ethanopyrimido[4,5-b][6,1,11,14]benzoxatriazacyclononadecin-14(15H)-one, 21-chloro-8,9,10,11,16,17,18,23-octahydro-26-methoxy-]: the IC50 was 6310 nM in assay [1] and 398 nM in assay [2].
On to `COc1cc2ncnc3c2cc1OCCC1CCN(CC1)CC(=O)NCCCc1ccc(Cl)cc1N3` [Compound 58, 14H-4,6-ethanediylidene-10,13-ethano-8H-pyrimido[4,5-b][6,1,12,15]benzoxatriazacycloeicosin-15(16H)-one, 22-chloro-9,10,11,12,17,18,19,24-octahydro-27-methoxy-], for which the IC50 in assay [1] and in assay [2] was 2000 nM throughout.
Turning to `COc1cc2ncnc3c2cc1OCCCNC(=O)CNC(=O)Cc1ccc(Cl)cc1N3` [Compound 60, 4,6-ethanediylidenepyrimido[4,5-b][6,1,10,13]benzoxatriazacycloheptadecine-12,15-dione, 19-chloro-8,9,10,11,13,14,16,21-octahydro-22-methoxy-], the IC50 in assay [1] was 15.8 nM; in assay [2], 2 nM.
The matching figures for `COc1cc2ncnc3c2cc1OCCCCCNCc1cc(F)c(Br)cc1N3` [Compound 61, 4,6-ethenopyrimido[4,5-b][6,1,12]benzoxadiazacyclopentadecine, 17-bromo-16-fluoro-8,9,10,11,12,13,14,19-octahydro-20-methoxy-]: 15.8 nM and 398 nM.
In the case of `COc1cc2ncnc3c2cc1OCCN(CCN1CCOCC1)C(=O)CNC(=O)Cc1ccc(Cl)cc1N3` [Compound 62, 4,6-ethanediylidene-8H-pyrimido[4,5-b][6,1,9,12]benzoxatriazacyclohexadecine-11,14-dione, 18-chloro-9,10,12,13,15,20-hexahydro-21-methoxy-10-[2-(4-morpholinyl)ethyl]-], the IC50 in assay [1] is 398 nM; in assay [2] it was 5010 nM.
The matching figures for `COCCN1CCOc2cc3c(ncnc3cc2OC)Nc2cc(Cl)ccc2CC(=O)NCC1=O` [Compound 63, 4,6-ethanediylidene-8H-pyrimido[4,5-b][6,1,9,12]benzoxatriazacyclohexadecine-11,14-dione, 18-chloro-9,10,12,13,15,20-hexahydro-21-methoxy-10-(2-methoxyethyl)-]: 126 nM and 2000 nM.
Take `COc1cc2ncnc3c2cc1OCCCCCCOc1cc(NC(=O)c2ccc(F)cc2)ccc1N3` [Compound 64, benzamide, 4-fluoro-N-(8,9,10,11,12,13-hexahydro-20-methoxy-4,6-ethanediylidene-19H-pyrimido[4,5-b][6,13,1]benzodioxaazacyclopentadecin-16-yl)-]: the IC50 was 1000 nM in assay [1] and 398 nM in assay [2].
The matching figures for `COc1cc2ncnc3c2cc1OCCNC(=O)C(CC(C)C)NC(=O)Cc1ccc(Cl)cc1N3` (stereo not shown) [Compound 67, 4,6-ethanediylidene-8H-pyrimido[4,5-b][6,1,9,12]benzoxatriazacyclohexadecine-11,14-dione, 18-chloro-9,10,12,13,15,20-hexahydro-21-methoxy-12-(2-methylpropyl)-]: 100 nM and 501 nM.
On to `COc1cc2ncnc3c2cc1OCCCNC(=O)C(CC(C)C)NC(=O)Cc1ccc(Cl)cc1N3` (stereo not shown) [Compound 68, 4,6-ethanediylidenepyrimido[4,5-b][6,1,10,13]benzoxatriazacycloheptadecine-12,15-dione, 19-chloro-8,9,10,11,13,14,16,21-octahydro-22-methoxy-13-(2-methylpropyl)-], for which the IC50 in assay [1] is 12.6 nM; in assay [2] it was 6.31 nM.
The matching figures for `COc1cc2ncnc3c2cc1OCCCCNC(=O)CNCc1ccc(Cl)cc1N3` [Compound 101, 4,6-ethanediylidenepyrimido[4,5-b][6,1,11,14]benzoxatriazacycloheptadecin-13(8H)-one, 19-chloro-9,10,11,12,14,15,16,21-octahydro-22-methoxy-]: 251 nM and 31.6 nM.

For the origin of these results see US8394786B2, “Quinazoline derivatives” (Janssen Pharmaceutica N.V., priority 2003, dated 2013).
